US12565489B2, “Heterocyclyl pyrimidines and triazines as novel fungicides” (Bayer Aktiengesellschaft, priority 2020, dated 2026)

Assay: Measurement of Log P values by HPLC on reversed phase columns (EEC directive 79/831 Annex V.A8)
Assay type: physicochemical
Conditions: LogP
Method: Measurement of Log P values as provided herein was performed according to EEC directive 79/831 Annex V.A8 by HPLC (High Performance Liquid Chromatography) on reversed phase columns with the following methods: • ^[a] Log P value is determined by measurement of LC-UV, in an acidic range, with 0.1% formic acid in water and acetonitrile as eluent (linear gradient from 10% acetonitrile to 95% acetonitrile). • ^[b] Log P value is determined by measurement of LC-UV, in a neutral range, with 0.001 molar ammonium acetate solution in water and acetonitrile as eluent (linear gradient from 10% acetonitrile to 95% acetonitrile). • ^[c] Log P value is determined by measurement of LC-UV, in an acidic range, with 0.1% phosphoric acid and acetonitrile as eluent (linear gradient from 10% acetonitrile to 95% acetonitrile).
If more than one Log P value is available within the same method, all the values are given and separated by “+”.
Calibration was done with straight-chain alkan2-ones (with 3 to 16 carbon atoms) with known Log P values (measurement of Log P values using retention times with linear interpolation between successive alkanones). Lambda-max-values were determined using UV-spectra from 200 nm to 400 nm and the peak values of the chromatographic signals

| SMILES | chromatographic logP |
| --- | --- |
| Cc1ccc(CC(CON2C(=O)c3ccccc3C2=O)NC(=O)c2nc(C3CC3)ncc2Oc2cccc(C(F)(F)F)c2)c(C)c1 (racemic) [Compound 3-01, 2-cyclopropyl-N-{(2RS)-1-(2,4-dimethylphenyl)-3-[(1,3-dioxo-1,3-dihydro-2H-isoindol-2-yl)oxy]propan-2-yl}-5-[3-(trifluoromethyl)phenoxy]pyrimidine-4-carboxamide] | 5.4 |
| C#Cc1cccc(Oc2cnc(C)nc2C(=O)N[C@@H](CON2C(=O)c3ccccc3C2=O)Cc2ccc(C)cc2C)c1 (racemic) [Compound 3-02] | 4.41 |
| CSc1ncc(Br)c(C(=O)N[C@@H](CON2C(=O)c3ccccc3C2=O)Cc2ccc(C)cc2Cl)n1 (racemic) [Compound 3-03] | 4.62 |
| Cc1ccc(CC(CON)NC(=O)c2nc(C3CC3)ncc2Oc2cccc(C(F)(F)F)c2)c(C)c1 (racemic) [Compound 4-01, N-[(2RS)-1-(aminooxy)-3-(2,4-dimethylphenyl)propan-2-yl]-2-cyclopropyl-5-[3-(trifluoromethyl)phenoxy]pyrimidine-4-carboxamide] | 3.7 |
| C#Cc1cccc(Oc2cnc(C)nc2C(=O)N[C@@H](CON)Cc2ccc(C)cc2C)c1 (racemic) [Compound 4-02] | 2.53 |
| CSc1ncc(Br)c(C(=O)N[C@@H](CON)Cc2ccc(C)cc2Cl)n1 (racemic) [Compound 4-03] | 2.58 |
| CSc1ncc(Br)c(C(=O)N[C@@H](CON2C(=O)c3ccccc3C2=O)Cc2ccc(C)cc2C)n1 (racemic) [Compound 6a-01] | 4.55 |
| CSc1ncc(Br)c(C(=O)N[C@@H](CON)Cc2ccc(C)cc2C)n1 (racemic) [Compound 6b-01] | 2.49 |
| Cc1ccc(CC2CON=C(c3nc(C)ncc3Br)N2)c(C)c1 (racemic) [Compound 7-01, (5RS)-3-(5-bromo-2-methylpyrimidin-4-yl)-5-(2,4-dimethylbenzyl)-5,6-dihydro-4H-1,2,4-oxadiazine] | 3.05 |
| CSc1ncc(Br)c(C2=NOC[C@@H](Cc3ccc(C)cc3C)N2)n1 (racemic) [Compound 7-02] | 4.05 |
| CSc1ncc(Br)c(C2=NOC[C@@H](Cc3ccc(C)cc3Cl)N2)n1 (racemic) [Compound 7-03] | 4.08 |
| Cc1ccc(C[C@H](N)CC(N)=O)c(C)c1 (racemic) [Compound 9-04] | 0.69 |
| Cc1ccc([C@H](N)CC(N)=O)c(C)c1 (racemic) [Compound 9-05] | 0.55 |
| Cc1ccc(C[C@H](N)CCN)c(C)c1 (racemic) [Compound 9-06] | 0.23 |
| COc1ccc(C[C@H](CCl)NC(=O)c2nc(C)ncc2Oc2cccc(C(F)(F)F)c2)c(Cl)c1 (racemic) [Compound 10-01] | 4.47 |
| Cc1ccc(C[C@H](CCl)NC(=O)c2nc(C)ncc2Oc2cccc(C(F)(F)F)c2)c(Cl)c1 (racemic) [Compound 10-02] | 4.74 |
| Cc1ccc(C[C@H](CCl)NC(=O)c2nc(C)ncc2Oc2cccc(C3CC3)c2F)c(Cl)c1 (racemic) [Compound 10-03] | 4.93 |
| Cc1ccc(C[C@H](CCl)NC(=O)c2nc(C)ncc2Oc2cccc(Cl)c2)c(Cl)c1 (racemic) [Compound 10-04] | 4.61 |
| Cc1ccc(C[C@H](CCl)NC(=O)c2nc(C)ncc2Oc2cccc(Cl)c2F)c(Cl)c1 (racemic) [Compound 10-05] | 4.7 |

| SMILES | chromatographic logP |
| --- | --- |
| Cc1ncc(Oc2cccc(C(F)(F)F)c2)c(C(=O)N[C@@H](CCl)Cc2ccc(Br)cc2C)n1 (racemic) [Compound 10-06] | 4.86 |
| Cc1ncc(Oc2cccc(C(F)(F)F)c2)c(C(=O)N[C@@H](CCl)Cc2csc(C(F)(F)F)c2)n1 (racemic) [Compound 10-07] | 4.55 |
| Cc1ncc(Oc2cccc(C(F)(F)F)c2)c(C(=O)N[C@@H](CCl)Cc2ccc(OC(F)F)cc2Cl)n1 (racemic) [Compound 10-08] | 4.51 |
| Cc1ncc(Oc2cccc(C(F)(F)F)c2)c(C(=O)N[C@@H](CCl)Cc2ccc(SC(F)(F)F)cc2)n1 (racemic) [Compound 10-09] | 4.92 |
| Cc1ncc(Oc2cccc(C(F)(F)F)c2)c(C(=O)N[C@@H](CCl)Cc2ccc(C(F)F)cc2Cl)n1 (racemic) [Compound 10-10] | 4.37 |
| Cc1ccc(C[C@H](CCl)NC(=O)c2nc(C)ncc2Oc2cccc(C3CC3)c2F)c(C)c1 (racemic) [Compound 10-11] | 4.86 |
| COc1ccc(C[C@H](CCl)NC(=NO)c2nc(C)ncc2Oc2cccc(C(F)(F)F)c2)c(Cl)c1 (racemic) [Compound 11-01] | 4.01 |
| Cc1ccc(C[C@H](CCl)NC(=NO)c2nc(C)ncc2Oc2cccc(C(F)(F)F)c2)c(Cl)c1 (racemic) [Compound 11-02] | 4.31 |
| Cc1ccc(C[C@H](CCl)NC(=NO)c2nc(C)ncc2Oc2cccc(C3CC3)c2F)c(Cl)c1 (racemic) [Compound 11-03] | 4.62 |
| Cc1ccc(C[C@H](CCl)NC(=NO)c2nc(C)ncc2Oc2cccc(C3CC3)c2F)c(C)c1 (racemic) [Compound 11-04] | 4.51 |
| Cc1ccc(C[C@H](CCl)NC(=NO)c2nc(C)ncc2Oc2cccc(Cl)c2)c(Cl)c1 (racemic) [Compound 11-05] | 4.28 |
| Cc1ccc(C[C@H](CCl)NC(=NO)c2nc(C)ncc2Oc2cccc(Cl)c2F)c(Cl)c1 (racemic) [Compound 11-06] | 4.16 |
| Cc1ncc(Oc2cccc(C(F)(F)F)c2)c(C(=NO)N[C@@H](CCl)Cc2csc(C(F)(F)F)c2)n1 (racemic) [Compound 11-08] | 4.12 |
| Cc1ncc(Oc2cccc(C(F)(F)F)c2)c(C(=NO)N[C@@H](CCl)Cc2ccc(OC(F)F)cc2Cl)n1 (racemic) [Compound 11-09] | 4.08 |
| Cc1ncc(Oc2cccc(C(F)(F)F)c2)c(C(=NO)N[C@@H](CCl)Cc2ccc(SC(F)(F)F)cc2)n1 (racemic) [Compound 11-10] | 4.66 |
| Cc1ncc(Oc2cccc(C(F)(F)F)c2)c(C(=NO)N[C@@H](CCl)Cc2ccc(C(F)F)cc2Cl)n1 (racemic) [Compound 11-11] | 4.02 |
| Cc1ccc(CC(CCl)NC(=O)c2nc(C)ncc2Br)c(C)c1 (racemic) [Compound 12-01, 5-bromo-N-[(2RS)-1-chloro-3-(2,4-dimethylphenyl)propan-2-yl]-2-methyl-pyrimidine-4-carboxamide] | 3.66 |
| Cc1ccc(CC(CCl)NC(=NO)c2nc(C)ncc2Br)c(C)c1 (racemic) [Compound 13-01, 5-bromo-N-[(2RS)-1-chloro-3-(2,4-dimethylphenyl)propan-2-yl]-N′-hydroxy-2-methylpyrimidine-4-carboximidamide] | 3.26 |
| Cc1ncc(Oc2cccc(Cl)c2)c(C(N)=NO[C@H](F)C(=O)c2ccc(Cl)cc2)n1 (racemic) [Compound 19-04] | 3.4 |

Same assay, conditions: method [a]: LC-UV, acidic range, 0.1% formic acid in water and acetonitrile as eluent; read-out: LogP

| SMILES | chromatographic logP |
| --- | --- |
| N[C@H](CCl)Cc1ccc(SC(F)(F)F)cc1 (racemic) [Compound 9-02] | 1.68 |
| N[C@H](CCl)Cc1csc(C(F)(F)F)c1 (racemic) [Compound 9-03] | 1.29 |

Same assay, conditions: reversed phase HPLC column, method [a]: LC-UV, acidic range, 0.1% formic acid in water and acetonitrile as eluent; read-out: LogP

| SMILES | chromatographic logP |
| --- | --- |
| Cc1ccc(C[C@H](N)CON2C(=O)c3ccccc3C2=O)c(C)c1 (racemic) [Compound 2-01] | 1.55 |
